{"source": "ChEMBL document CHEMBL1146402", "about": "“New Oxygenated Sesquiterpenes from the Indonesian Soft Coral Nephthea chabrolii” (J Nat Prod, 1997)", "key": {"Spodoptera littoralis [1]": {"test_system": "Spodoptera littoralis", "assay": "Insecticidal activity in Spodoptera littoralis assessed as inhibition of larval growth at 530 ppm after 6 days by chronic feeding experiment", "type": "functional", "conditions": "144 h"}, "Spodoptera littoralis [2]": {"test_system": "Spodoptera littoralis", "assay": "Insecticidal activity in Spodoptera littoralis assessed as inhibition of larval growth after 6 days by chronic feeding experiment", "type": "functional, organism-based"}}, "data": [{"smiles": "CC1=C2C[C@H](C(C)(C)O)CC[C@H](C)[C@@H]2CC1=O", "note": "[HYDROXYCOLORENONE]", "values": [{"measurement": "inhibition at 530 ppm", "setting": "Spodoptera littoralis [1]", "result": 90, "unit": "%"}, {"measurement": "EC50", "setting": "Spodoptera littoralis [2]", "result": 8.8, "unit": "ppm"}, {"measurement": "LC50", "setting": "Spodoptera littoralis [2]; Spodoptera littoralis, 144 h", "result": 453, "unit": "µg/mL"}]}]}
